Assay results as given in the NIST ThermoML archive (doi:10.1016/j.jct.2015.12.017).

Assay: molar heat capacity at constant pressure
Settings: 101.33 kPa

O=P([O-])([O-])[O-].[Co+2].[Cs+] [cesium cobalt(II) phosphate]
Settings	molar heat capacity at constant pressure [J/K/mol]
304.98 K, Crystal 4, Vacuum adiabatic calorimetry	136.11
305.47 K, Crystal 4, Vacuum adiabatic calorimetry	136.19
306.97 K, Crystal 4, Vacuum adiabatic calorimetry	137.44
307.51 K, Crystal 4, Vacuum adiabatic calorimetry	137.6
308.95 K, Crystal 4, Vacuum adiabatic calorimetry	138.69
309.32 K, Crystal 4, Vacuum adiabatic calorimetry	139.1
310 K, Crystal 4, Vacuum adiabatic calorimetry	136.94
310.91 K, Crystal 4, Vacuum adiabatic calorimetry	142.43
311.46 K, Crystal 4, Vacuum adiabatic calorimetry	142.34
312.84 K, Crystal 4, Vacuum adiabatic calorimetry	144.42
313.4 K, Crystal 3, Vacuum adiabatic calorimetry	139.93
313.4 K, Crystal 4, Vacuum adiabatic calorimetry	137.85
313.44 K, Crystal 3, Vacuum adiabatic calorimetry	144.34
314.77 K, Crystal 3, Vacuum adiabatic calorimetry	143.84
315.42 K, Crystal 3, Vacuum adiabatic calorimetry	144.09
316.69 K, Crystal 3, Vacuum adiabatic calorimetry	142.51
317.39 K, Crystal 3, Vacuum adiabatic calorimetry	143.18
318.6 K, Crystal 3, Vacuum adiabatic calorimetry	141.68
319.35 K, Crystal 3, Vacuum adiabatic calorimetry	142.51
320 K, Crystal 3, Vacuum adiabatic calorimetry	142.34
320.51 K, Crystal 3, Vacuum adiabatic calorimetry	142.01
321.31 K, Crystal 3, Vacuum adiabatic calorimetry	142.84
322.4 K, Crystal 3, Vacuum adiabatic calorimetry	142.76
323.26 K, Crystal 3, Vacuum adiabatic calorimetry	143.42
324.27 K, Crystal 3, Vacuum adiabatic calorimetry	143.42
325.2 K, Crystal 3, Vacuum adiabatic calorimetry	144.09
326.14 K, Crystal 3, Vacuum adiabatic calorimetry	144.09
327.14 K, Crystal 3, Vacuum adiabatic calorimetry	144.59
327.98 K, Crystal 3, Vacuum adiabatic calorimetry	144.75
329.07 K, Crystal 3, Vacuum adiabatic calorimetry	145.09
330 K, Crystal 3, Vacuum adiabatic calorimetry	145.34
330.98 K, Crystal 3, Vacuum adiabatic calorimetry	145.59
332.87 K, Crystal 3, Vacuum adiabatic calorimetry	146
334.4 K, Crystal 3, Small sample (50 mg) DSC	146.33
334.77 K, Crystal 3, Vacuum adiabatic calorimetry	146.58
336.65 K, Crystal 3, Vacuum adiabatic calorimetry	147.08
336.9 K, Crystal 3, Small sample (50 mg) DSC	147.17
338.52 K, Crystal 3, Vacuum adiabatic calorimetry	147.5
339.4 K, Crystal 3, Small sample (50 mg) DSC	148
340 K, Crystal 3, Vacuum adiabatic calorimetry	147.91
340.21 K, Crystal 3, Vacuum adiabatic calorimetry	148
341.82 K, Crystal 3, Vacuum adiabatic calorimetry	148.41
341.9 K, Crystal 3, Small sample (50 mg) DSC	148
343.88 K, Crystal 3, Vacuum adiabatic calorimetry	149.08
344.4 K, Crystal 3, Small sample (50 mg) DSC	148.83
345.68 K, Crystal 3, Vacuum adiabatic calorimetry	149.58
346.9 K, Crystal 3, Small sample (50 mg) DSC	149.66
347.49 K, Crystal 3, Vacuum adiabatic calorimetry	150.08
349.26 K, Crystal 3, Vacuum adiabatic calorimetry	150.49
349.4 K, Crystal 3, Small sample (50 mg) DSC	150.49
350 K, Crystal 3, Small sample (50 mg) DSC	150.41
351.9 K, Crystal 3, Small sample (50 mg) DSC	151.32
354.4 K, Crystal 3, Small sample (50 mg) DSC	151.32
356.9 K, Crystal 3, Small sample (50 mg) DSC	152.15
359.4 K, Crystal 3, Small sample (50 mg) DSC	152.99
360 K, Crystal 3, Small sample (50 mg) DSC	152.74
361.9 K, Crystal 3, Small sample (50 mg) DSC	152.99
364.4 K, Crystal 3, Small sample (50 mg) DSC	152.99
366.9 K, Crystal 3, Small sample (50 mg) DSC	153.82
369.4 K, Crystal 3, Small sample (50 mg) DSC	154.65
370 K, Crystal 3, Small sample (50 mg) DSC	154.82
371.9 K, Crystal 3, Small sample (50 mg) DSC	155.48
374.4 K, Crystal 3, Small sample (50 mg) DSC	155.48
376.9 K, Crystal 3, Small sample (50 mg) DSC	156.31
379.4 K, Crystal 3, Small sample (50 mg) DSC	156.31
380 K, Crystal 3, Small sample (50 mg) DSC	156.73
381.9 K, Crystal 3, Small sample (50 mg) DSC	157.14
384.4 K, Crystal 3, Small sample (50 mg) DSC	157.14
386.9 K, Crystal 3, Small sample (50 mg) DSC	157.97
389.4 K, Crystal 3, Small sample (50 mg) DSC	157.97
390 K, Crystal 3, Small sample (50 mg) DSC	158.47
391.9 K, Crystal 3, Small sample (50 mg) DSC	158.81
394.4 K, Crystal 3, Small sample (50 mg) DSC	159.64
396.9 K, Crystal 3, Small sample (50 mg) DSC	159.64
399.4 K, Crystal 3, Small sample (50 mg) DSC	160.47
400 K, Crystal 3, Small sample (50 mg) DSC	160.14
401.9 K, Crystal 3, Small sample (50 mg) DSC	160.47
404.4 K, Crystal 3, Small sample (50 mg) DSC	161.3
406.9 K, Crystal 3, Small sample (50 mg) DSC	161.3
409.4 K, Crystal 3, Small sample (50 mg) DSC	161.3
410 K, Crystal 3, Small sample (50 mg) DSC	161.72
411.9 K, Crystal 3, Small sample (50 mg) DSC	162.13
414.4 K, Crystal 3, Small sample (50 mg) DSC	162.13
416.9 K, Crystal 3, Small sample (50 mg) DSC	162.96
419.4 K, Crystal 3, Small sample (50 mg) DSC	162.96
420 K, Crystal 3, Small sample (50 mg) DSC	163.13
421.9 K, Crystal 3, Small sample (50 mg) DSC	162.96
424.4 K, Crystal 3, Small sample (50 mg) DSC	163.8
426.9 K, Crystal 3, Small sample (50 mg) DSC	163.8
429.4 K, Crystal 3, Small sample (50 mg) DSC	164.63
430 K, Crystal 3, Small sample (50 mg) DSC	164.54
431.9 K, Crystal 3, Small sample (50 mg) DSC	164.63
434.4 K, Crystal 3, Small sample (50 mg) DSC	165.46
436.9 K, Crystal 3, Small sample (50 mg) DSC	165.46
439.4 K, Crystal 3, Small sample (50 mg) DSC	166.29
440 K, Crystal 3, Small sample (50 mg) DSC	165.96
441.9 K, Crystal 3, Small sample (50 mg) DSC	166.29
444.4 K, Crystal 3, Small sample (50 mg) DSC	167.12
446.9 K, Crystal 3, Small sample (50 mg) DSC	167.12
449.4 K, Crystal 3, Small sample (50 mg) DSC	167.12
450 K, Crystal 3, Small sample (50 mg) DSC	167.45
